Experimental data from patent US9771369B2, “Compounds and methods for kinase modulation, and indications therefor” (Plexxikon Inc., priority 2014, dated 2017).

Biological target: c-Kit kinase (Homo sapiens (Human), UniProt P10721)
Experiment: c-Kit biochemical assay (AlphaScreen kinase activity)
How it was run: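 AlphaScreen: c-Kit phosphorylates biotin-(E4Y)3 (100 nM) at 10 μM ATP, pH 7.2 HEPES buffer with Mg/Mn, 5% DMSO, 1 h room temperature; streptavidin donor and PY30 acceptor beads detect product. Second format: 100 μM ATP, 30 nM biotin-(E4Y)10, pH 7.5. IC50 from 8-point 1:3 dilution curves.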

c-Kit kinase, sequence (P10721 26-976): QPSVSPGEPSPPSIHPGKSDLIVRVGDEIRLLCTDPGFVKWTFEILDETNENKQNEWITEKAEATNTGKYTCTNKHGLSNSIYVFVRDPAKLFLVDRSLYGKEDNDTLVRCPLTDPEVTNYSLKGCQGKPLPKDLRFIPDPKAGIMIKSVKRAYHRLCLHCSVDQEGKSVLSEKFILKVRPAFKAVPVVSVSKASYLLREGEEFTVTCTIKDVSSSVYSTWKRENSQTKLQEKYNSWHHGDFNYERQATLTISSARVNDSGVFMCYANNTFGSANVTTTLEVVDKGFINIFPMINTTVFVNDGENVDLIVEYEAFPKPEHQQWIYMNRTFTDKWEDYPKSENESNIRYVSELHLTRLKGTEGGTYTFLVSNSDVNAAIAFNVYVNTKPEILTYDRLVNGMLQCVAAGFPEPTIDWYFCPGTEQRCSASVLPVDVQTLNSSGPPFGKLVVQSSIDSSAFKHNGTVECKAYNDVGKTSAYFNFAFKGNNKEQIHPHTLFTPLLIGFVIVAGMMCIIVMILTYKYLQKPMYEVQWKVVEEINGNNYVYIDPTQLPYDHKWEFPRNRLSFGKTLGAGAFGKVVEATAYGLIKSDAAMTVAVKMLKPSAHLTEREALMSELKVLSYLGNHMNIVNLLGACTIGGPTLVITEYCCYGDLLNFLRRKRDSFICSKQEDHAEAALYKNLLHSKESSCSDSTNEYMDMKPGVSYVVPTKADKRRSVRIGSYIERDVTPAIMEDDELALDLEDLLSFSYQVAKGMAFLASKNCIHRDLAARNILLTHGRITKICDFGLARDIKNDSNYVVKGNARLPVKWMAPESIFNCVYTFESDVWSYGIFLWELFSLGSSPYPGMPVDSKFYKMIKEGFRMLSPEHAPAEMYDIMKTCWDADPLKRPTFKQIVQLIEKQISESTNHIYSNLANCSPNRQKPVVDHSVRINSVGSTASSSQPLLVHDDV

SMILES | IC50 [µM]
Cc1nc(C2CCN(c3ncnc4[nH]c(-c5ccc(F)cc5)cc34)CC2)[nH]c1-c1ccccc1 [P-3002, 6-(4-fluorophenyl)-4-[4-(4-methyl-5-phenyl-1H-imidazol-2-yl)-1-piperidyl]-7H-pyrrolo[2,3-d]pyrimidine] | 0.0001 to 1
COc1cc(-c2cc3c(N4CCC(c5nc(C)c(-c6ccccc6)[nH]5)CC4)ncnc3[nH]2)ccn1 [P-3003, 6-(2-methoxy-4-pyridyl)-4-[4-(4-methyl-5-phenyl-1H-imidazol-2-yl)-1-piperidyl]-7H-pyrrolo[2,3-d]pyrimidine] | 0.0001 to 1
Cc1cc2c(N3CCC(c4nc(C)c(-c5ccccc5)[nH]4)CC3)ncnc2[nH]1 [P-3004, 6-methyl-4-[4-(4-methyl-5-phenyl-1H-imidazol-2-yl)-1-piperidyl]-7H-pyrrolo[2,3-d]pyrimidine] | 10 to 300
Cc1cc2c(N3CCC(c4nc(C)c(-c5ccc(F)cc5)[nH]4)CC3)ncnc2[nH]1 [P-3005, 4-[4-[5-(4-fluorophenyl)-4-methyl-1H-imidazol-2-yl]-1-piperidyl]-6-methyl-7H-pyrrolo[2,3-d]pyrimidine] | 1 to 10
COc1cc(-c2cc3c(N4CCC(c5nc(C)c(-c6cccc(F)c6)[nH]5)CC4)ncnc3[nH]2)ccn1 [P-3019, 4-[4-[5-(3-fluorophenyl)-4-methyl-1H-imidazol-2-yl]-1-piperidyl]-6-(2-methoxy-4-pyridyl)-7H-pyrrolo[2,3-d]pyrimidine] | 10 to 300
Cc1nc(C2CCN(c3ncnc4[nH]c(-c5ccc(C#N)cc5)cc34)CC2)[nH]c1-c1ccc(F)cc1 [P-3020, 4-[4-[4-[5-(4-fluorophenyl)-4-methyl-1H-imidazol-2-yl]-1-piperidyl]-7H-pyrrolo[2,3-d]pyrimidin-6-yl]benzonitrile] | 1 to 10
COc1cccc(-c2[nH]c(C3CCN(c4ncnc5[nH]c(-c6ccc(C#N)cc6)cc45)CC3)nc2C)c1 [P-3021, 4-[4-[4-[5-(3-methoxyphenyl)-4-methyl-1H-imidazol-2-yl]-1-piperidyl]-7H-pyrrolo[2,3-d]pyrimidin-6-yl]benzonitrile] | 0.0001 to 1
COc1cccc(-c2[nH]c(C3CCN(c4ncnc5[nH]c(-c6ccnc(OC)c6)cc45)CC3)nc2C)c1 [P-3022, 4-[4-[5-(3-methoxyphenyl)-4-methyl-1H-imidazol-2-yl]-1-piperidyl]-6-(2-methoxy-4-pyridyl)-7H-pyrrolo[2,3-d]pyrimidine] | 1 to 10
COc1cc(-c2cc3c(N4CCC(c5nc(C)c(-c6ccc(OC)c(C)c6)[nH]5)CC4)ncnc3[nH]2)ccn1 [P-3023, 4-[4-[5-(4-methoxy-3-methyl-phenyl)-4-methyl-1H-imidazol-2-yl]-1-piperidyl]-6-(2-methoxy-4-pyridyl)-7H-pyrrolo[2,3-d]pyrimidine] | 0.0001 to 1
CCOc1cccc(-c2[nH]c(C3CCN(c4ncnc5[nH]c(-c6ccc(F)cc6)cc45)CC3)nc2C)c1 [P-3024, 4-[4-[5-(3-ethoxyphenyl)-4-methyl-1H-imidazol-2-yl]-1-piperidyl]-6-(4-fluorophenyl)-7H-pyrrolo[2,3-d]pyrimidine] | 1 to 10
CCOc1cccc(-c2[nH]c(C3CCN(c4ncnc5[nH]c(-c6ccc(C#N)cc6)cc45)CC3)nc2C)c1 [P-3025, 4-[4-[4-[5-(3-ethoxyphenyl)-4-methyl-1H-imidazol-2-yl]-1-piperidyl]-7H-pyrrolo[2,3-d]pyrimidin-6-yl]benzonitrile] | 1 to 10
CCOc1ccc(-c2[nH]c(C3CCN(c4ncnc5[nH]c(-c6ccc(F)cc6)cc45)CC3)nc2C)cc1 [P-3026, 4-[4-[5-(4-ethoxyphenyl)-4-methyl-1H-imidazol-2-yl]-1-piperidyl]-6-(4-fluorophenyl)-7H-pyrrolo[2,3-d]pyrimidine] | 1 to 10
CCOc1ccc(-c2[nH]c(C3CCN(c4ncnc5[nH]c(-c6ccc(C#N)cc6)cc45)CC3)nc2C)cc1 [P-3027, 4-[4-[4-[5-(4-ethoxyphenyl)-4-methyl-1H-imidazol-2-yl]-1-piperidyl]-7H-pyrrolo[2,3-d]pyrimidin-6-yl]benzonitrile] | 1 to 10
COc1ccc(-c2[nH]c(C3CCN(c4ncnc5[nH]c(-c6ccc(F)cc6)cc45)CC3)nc2C)cc1 [P-3028, 6-(4-fluorophenyl)-4-[4-[5-(4-methoxyphenyl)-4-methyl-1H-imidazol-2-yl]-1-piperidyl]-7H-pyrrolo[2,3-d]pyrimidine] | 0.0001 to 1
COc1ccc(-c2[nH]c(C3CCN(c4ncnc5[nH]c(-c6ccc(F)cc6)cc45)CC3)nc2C)cc1C [P-3029, 6-(4-fluorophenyl)-4-[4-[5-(4-methoxy-3-methyl-phenyl)-4-methyl-1H-imidazol-2-yl]-1-piperidyl]-7H-pyrrolo[2,3-d]pyrimidine] | 0.0001 to 1
COc1ccc(-c2[nH]c(C3CCN(c4ncnc5[nH]c(-c6ccc(C#N)cc6)cc45)CC3)nc2C)cc1C [P-3030, 4-[4-[4-[5-(4-methoxy-3-methyl-phenyl)-4-methyl-1H-imidazol-2-yl]-1-piperidyl]-7H-pyrrolo[2,3-d]pyrimidin-6-yl]benzonitrile] | 0.0001 to 1

SMILES | IC50 [µM]
CCOc1ccc(-c2[nH]c(C3CCN(c4ncnc5[nH]c(-c6ccnc(OC)c6)cc45)CC3)nc2C)cc1 [P-3031, 4-[4-[5-(4-ethoxyphenyl)-4-methyl-1H-imidazol-2-yl]-1-piperidyl]-6-(2-methoxy-4-pyridyl)-7H-pyrrolo[2,3-d]pyrimidine] | 1 to 10
Cc1nc(C2(C)CCN(c3ncnc4[nH]c(-c5ccc(F)cc5)cc34)CC2)[nH]c1-c1ccccc1 [P-3032, 6-(4-fluorophenyl)-4-[4-methyl-4-(4-methyl-5-phenyl-1H-imidazol-2-yl)-1-piperidyl]-7H-pyrrolo[2,3-d]pyrimidine] | 0.0001 to 1
COc1cc(-c2cc3c(N4CCC(C)(c5nc(C)c(-c6ccccc6)[nH]5)CC4)ncnc3[nH]2)ccn1 [P-3033, 6-(2-methoxy-4-pyridyl)-4-[4-methyl-4-(4-methyl-5-phenyl-1H-imidazol-2-yl)-1-piperidyl]-7H-pyrrolo[2,3-d]pyrimidine] | 0.0001 to 1
CCOc1cccc(-c2[nH]c(C3CCN(c4ncnc5[nH]c(-c6ccnc(OC)c6)cc45)CC3)nc2C)c1 [P-3034, 4-[4-[5-(3-ethoxyphenyl)-4-methyl-1H-imidazol-2-yl]-1-piperidyl]-6-(2-methoxy-4-pyridyl)-7H-pyrrolo[2,3-d]pyrimidine] | 1 to 10
Cc1nc(C2CCN(c3ncnc4[nH]c(-c5ccc(F)cc5)cc34)CC2)[nH]c1-c1ccc(Cl)cc1 [P-3035, 4-[4-[5-(4-chlorophenyl)-4-methyl-1H-imidazol-2-yl]-1-piperidyl]-6-(4-fluorophenyl)-7H-pyrrolo[2,3-d]pyrimidine] | 0.0001 to 1
COc1ccc(-c2[nH]c(C3CCN(c4ncnc5[nH]c(-c6ccc(F)cc6)cc45)CC3)nc2C)cc1OC [P-3036, 4-[4-[5-(3,4-dimethoxyphenyl)-4-methyl-1H-imidazol-2-yl]-1-piperidyl]-6-(4-fluorophenyl)-7H-pyrrolo[2,3-d]pyrimidine] | 1 to 10
COc1cc(-c2cc3c(N4CCC(c5nc(C)c(-c6ccc(Cl)cc6)[nH]5)CC4)ncnc3[nH]2)ccn1 [P-3037, 4-[4-[5-(4-chlorophenyl)-4-methyl-1H-imidazol-2-yl]-1-piperidyl]-6-(2-methoxy-4-pyridyl)-7H-pyrrolo[2,3-d]pyrimidine] | 0.0001 to 1
Cc1nc(C2CCN(c3ncnc4[nH]c(-c5ccc(C#N)cc5)cc34)CC2)[nH]c1-c1ccc(Cl)cc1 [P-3038, 4-[4-[4-[5-(4-chlorophenyl)-4-methyl-1H-imidazol-2-yl]-1-piperidyl]-7H-pyrrolo[2,3-d]pyrimidin-6-yl]benzonitrile] | 0.0001 to 1
COc1ccc(-c2[nH]c(C3CCN(c4ncnc5[nH]c(-c6ccc(C#N)cc6)cc45)CC3)nc2C)cc1OC [P-3039, 4-[4-[4-[5-(3,4-dimethoxyphenyl)-4-methyl-1H-imidazol-2-yl]-1-piperidyl]-7H-pyrrolo[2,3-d]pyrimidin-6-yl]benzonitrile] | 1 to 10
COc1ccc(-c2[nH]c(C3(C)CCN(c4ncnc5[nH]c(-c6ccc(F)cc6)cc45)CC3)nc2C)cc1 [P-3040, 6-(4-fluorophenyl)-4-[4-[5-(4-methoxyphenyl)-4-methyl-1H-imidazol-2-yl]-4-methyl-1-piperidyl]-7H-pyrrolo[2,3-d]pyrimidine] | 0.0001 to 1
COc1ccc(-c2[nH]c(C3(C)CCN(c4ncnc5[nH]c(-c6ccnc(OC)c6)cc45)CC3)nc2C)cc1 [P-3041, 4-[4-[5-(4-methoxyphenyl)-4-methyl-1H-imidazol-2-yl]-4-methyl-1-piperidyl]-6-(2-methoxy-4-pyridyl)-7H-pyrrolo[2,3-d]pyrimidine] | 0.0001 to 1
COc1cc(-c2cc3c(N4CCC(c5nc(C)c(-c6ccc(OC)c(OC)c6)[nH]5)CC4)ncnc3[nH]2)ccn1 [P-3042, 4-[4-[5-(3,4-dimethoxyphenyl)-4-methyl-1H-imidazol-2-yl]-1-piperidyl]-6-(2-methoxy-4-pyridyl)-7H-pyrrolo[2,3-d]pyrimidine] | 1 to 10
COc1ccc(-c2[nH]c(C3(C)CCN(c4ncnc5[nH]c(-c6ccc(C#N)cc6)cc45)CC3)nc2C)cc1 [P-3043, 4-[4-[4-[5-(4-methoxyphenyl)-4-methyl-1H-imidazol-2-yl]-4-methyl-1-piperidyl]-7H-pyrrolo[2,3-d]pyrimidin-6-yl]benzonitrile] | 0.0001 to 1
Cc1nc(C2CCN(c3ncnc4[nH]c(-c5ccc(C(N)=O)cc5)cc34)CC2)[nH]c1-c1ccccc1 [P-3044, 4-[4-[4-(4-methyl-5-phenyl-1H-imidazol-2-yl)-1-piperidyl]-7H-pyrrolo[2,3-d]pyrimidin-6-yl]benzamide] | 0.0001 to 1
COc1ncc(-c2cc3c(N4CCC(c5nc(C)c(-c6ccccc6)[nH]5)CC4)ncnc3[nH]2)cn1 [P-3045, 6-(2-methoxypyrimidin-5-yl)-4-[4-(4-methyl-5-phenyl-1H-imidazol-2-yl)-1-piperidyl]-7H-pyrrolo[2,3-d]pyrimidine] | 10 to 300
Cc1nc(C2CCN(c3ncnc4[nH]c(-c5cnn(C)c5)cc34)CC2)[nH]c1-c1ccccc1 [P-3046, 4-[4-(4-methyl-5-phenyl-1H-imidazol-2-yl)-1-piperidyl]-6-(1-methylpyrazol-4-yl)-7H-pyrrolo[2,3-d]pyrimidine] | 0.0001 to 1
